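Tested at 5 concentrations; 48 h exposure; 96-well plates; endpoints linearly interpolated, else capped at highest concentration. GI50 is the concentration that inhibits growth by half.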 Calls of active or inactive are those of the source. Rule as the data show it: active = GI50 up to about 1.1 µM and inactive = higher.
Columns and labels:
Test in all cases: inhibition of tumour cell growth, NCI panel, 48 h
LOX IMVI = test system: LOX IMVI
OVCAR-5 = test system: OVCAR-5
UO-31 = test system: UO-31
KM12 = test system: KM12
NCI-H522 = test system: NCI-H522
NCI-H460 = test system: NCI-H460
HL-60 = test system: HL-60
SK-MEL-2 = test system: SK-MEL-2
MOLT-4 = test system: MOLT-4
OVCAR-3 = test system: OVCAR-3
SK-OV-3 = test system: SK-OV-3
UACC-257 = test system: UACC-257
HCT-116 = test system: HCT-116
NCI-H226 = test system: NCI-H226
SW-620 = test system: SW-620
Malme-3M = test system: Malme-3M
K562 = test system: K562
MDA-MB-435 = test system: MDA-MB-435
T47D = test system: T47D
MDA-N = test system: MDA-N

Structure (SMILES): N#CC1CCCCOCCOCCOCCOCCOCCCCCC1=O (centres undefined)
- GI50 (LOX IMVI): > 100 µM (inactive)
- GI50 (OVCAR-5): > 100 µM (inactive)
- GI50 (UO-31): > 100 µM (inactive)
- GI50 (KM12): > 100 µM (inactive)
- GI50 (NCI-H522): > 100 µM (inactive)
- GI50 (NCI-H460): > 100 µM (inactive)
- GI50 (HL-60): > 100 µM (inactive)
- GI50 (SK-MEL-2): > 100 µM (inactive)
- GI50 (MOLT-4): > 100 µM (inactive)
- GI50 (OVCAR-3): > 100 µM (inactive)
- GI50 (SK-OV-3): > 100 µM (inactive)
- GI50 (UACC-257): > 100 µM (inactive)
- GI50 (HCT-116): > 100 µM (inactive)
- GI50 (NCI-H226): > 100 µM (inactive)
- GI50 (SW-620): > 100 µM (inactive)
- GI50 (Malme-3M): > 100 µM (inactive)
- GI50 (K562): > 100 µM (inactive)

Structure (SMILES): COC(=O)/C(C#N)=C1\CCC(Nc2cccc(C(F)(F)F)c2)N1C (centres undefined)
- GI50 (LOX IMVI): > 100 µM (inactive)
- GI50 (OVCAR-5): > 100 µM (inactive)
- GI50 (UO-31): 63.1 µM (inactive)
- GI50 (KM12): 59.6 µM (inactive)
- GI50 (NCI-H522): > 100 µM (inactive)
- GI50 (NCI-H460): > 100 µM (inactive)
- GI50 (HL-60): 61.7 µM (inactive)
- GI50 (SK-MEL-2): > 100 µM (inactive)
- GI50 (MOLT-4): 51.6 µM (inactive)
- GI50 (OVCAR-3): > 100 µM (inactive)
- GI50 (SK-OV-3): 84.3 µM (inactive)
- GI50 (UACC-257): > 100 µM (inactive)
- GI50 (HCT-116): > 100 µM (inactive)
- GI50 (NCI-H226): > 100 µM (inactive)
- GI50 (SW-620): > 100 µM (inactive)
- GI50 (Malme-3M): > 100 µM (inactive)
- GI50 (K562): 45.8 µM (inactive)

Structure (SMILES): O=C(/C(=C\c1ccc(Cl)cc1)c1ccccc1)c1ccccc1
- GI50 (LOX IMVI): 29.9 µM (inactive)
- GI50 (OVCAR-5): 22.7 µM (inactive)
- GI50 (UO-31): 65.2 µM (inactive)
- GI50 (KM12): 22 µM (inactive)
- GI50 (NCI-H522): 31.6 µM (inactive)
- GI50 (NCI-H460): 53.8 µM (inactive)
- GI50 (HL-60): 15 µM (inactive)
- GI50 (SK-MEL-2): 11.7 µM (inactive)
- GI50 (MOLT-4): 51.3 µM (inactive)
- GI50 (SK-OV-3): > 100 µM (inactive)
- GI50 (UACC-257): 42.5 µM (inactive)
- GI50 (HCT-116): 29.7 µM (inactive)
- GI50 (NCI-H226): 39.6 µM (inactive)
- GI50 (SW-620): 57.8 µM (inactive)
- GI50 (Malme-3M): 57 µM (inactive)
- GI50 (K562): 54.1 µM (inactive)

Structure (SMILES): C[C@H]1CC(=O)C[C@@H]2CC[C@@H]3[C@H](CC[C@]4(C)C(OC(=O)c5cccc6c(=O)c7ccccc7[nH]c56)CC[C@@H]34)[C@]21C (some centres undefined)
- GI50 (LOX IMVI): 31.2 µM (inactive)
- GI50 (OVCAR-5): > 100 µM (inactive)
- GI50 (UO-31): 24.2 µM (inactive)
- GI50 (KM12): 30.4 µM (inactive)
- GI50 (NCI-H522): 18.7 µM (inactive)
- GI50 (MDA-MB-435): 36.4 µM (inactive)
- GI50 (NCI-H460): 26.7 µM (inactive)
- GI50 (HL-60): 14.3 µM (inactive)
- GI50 (SK-MEL-2): 28.6 µM (inactive)
- GI50 (MOLT-4): 5.28 µM (inactive)
- GI50 (OVCAR-3): 47.2 µM (inactive)
- GI50 (SK-OV-3): 16.3 µM (inactive)
- GI50 (UACC-257): 32.6 µM (inactive)
- GI50 (HCT-116): 33.3 µM (inactive)
- GI50 (NCI-H226): 28.2 µM (inactive)
- GI50 (SW-620): 55.5 µM (inactive)
- GI50 (T47D): 32.7 µM (inactive)
- GI50 (Malme-3M): 92.5 µM (inactive)
- GI50 (K562): 23.6 µM (inactive)

Structure (SMILES): COC(=O)C1C2C=CC(C2)C1(C(=O)OC)[S+]([O-])CC12CCC(CC1O)C2(C)C (centres undefined)
- GI50 (LOX IMVI): 21.1 µM (inactive)
- GI50 (OVCAR-5): > 100 µM (inactive)
- GI50 (UO-31): > 100 µM (inactive)
- GI50 (KM12): > 100 µM (inactive)
- GI50 (NCI-H522): > 100 µM (inactive)
- GI50 (NCI-H460): > 100 µM (inactive)
- GI50 (HL-60): > 100 µM (inactive)
- GI50 (SK-MEL-2): > 100 µM (inactive)
- GI50 (MOLT-4): > 100 µM (inactive)
- GI50 (OVCAR-3): > 100 µM (inactive)
- GI50 (SK-OV-3): > 100 µM (inactive)
- GI50 (UACC-257): > 100 µM (inactive)
- GI50 (HCT-116): > 100 µM (inactive)
- GI50 (NCI-H226): > 100 µM (inactive)
- GI50 (SW-620): 16 µM (inactive)
- GI50 (Malme-3M): > 100 µM (inactive)
- GI50 (K562): 39.4 µM (inactive)

Structure (SMILES): CCCCCCC(=O)OC[n+]1ccc2c(C)c3[nH]c4ccccc4c3c(C)c2c1
- GI50 (LOX IMVI): 0.537 µM (active)
- GI50 (OVCAR-5): 1.71 µM (inactive)
- GI50 (UO-31): 3.42 µM (inactive)
- GI50 (NCI-H522): 1.56 µM (inactive)
- GI50 (NCI-H460): 0.0728 µM (active)
- GI50 (HL-60): 2.23 µM (inactive)
- GI50 (SK-MEL-2): 5.38 µM (inactive)
- GI50 (MOLT-4): 0.118 µM (active)
- GI50 (OVCAR-3): 1.21 µM (inactive)
- GI50 (SK-OV-3): 1.83 µM (inactive)
- GI50 (UACC-257): 1.79 µM (inactive)
- GI50 (HCT-116): 0.376 µM (active)
- GI50 (NCI-H226): 1.46 µM (inactive)
- GI50 (SW-620): 0.31 µM (active)
- GI50 (Malme-3M): 1.61 µM (inactive)

Structure (SMILES): O=C(NO)C12C3C4C1C1C2C3C41C(=O)NO (centres undefined)
- GI50 (LOX IMVI): > 100 µM (inactive)
- GI50 (OVCAR-5): > 100 µM (inactive)
- GI50 (UO-31): > 100 µM (inactive)
- GI50 (KM12): > 100 µM (inactive)
- GI50 (NCI-H522): > 100 µM (inactive)
- GI50 (NCI-H460): > 100 µM (inactive)
- GI50 (HL-60): > 100 µM (inactive)
- GI50 (SK-MEL-2): > 100 µM (inactive)
- GI50 (MOLT-4): > 100 µM (inactive)
- GI50 (OVCAR-3): > 100 µM (inactive)
- GI50 (SK-OV-3): > 100 µM (inactive)
- GI50 (HCT-116): > 100 µM (inactive)
- GI50 (NCI-H226): > 100 µM (inactive)
- GI50 (Malme-3M): > 100 µM (inactive)
- GI50 (K562): > 100 µM (inactive)

Structure (SMILES): CCC[C@H](O)[C@@H](CNc1cc(NC(C)=O)nc(NC(C)=O)n1)N(Cc1ccccc1)Cc1ccccc1
- GI50 (MDA-N): 47 µM (inactive)
- GI50 (LOX IMVI): 27.9 µM (inactive)
- GI50 (OVCAR-5): 27.9 µM (inactive)
- GI50 (UO-31): 18.1 µM (inactive)
- GI50 (KM12): 11.1 µM (inactive)
- GI50 (NCI-H522): 8.75 µM (inactive)
- GI50 (MDA-MB-435): 54 µM (inactive)
- GI50 (NCI-H460): 21.8 µM (inactive)
- GI50 (SK-MEL-2): 27.4 µM (inactive)
- GI50 (MOLT-4): 4.47 µM (inactive)
- GI50 (OVCAR-3): 18.9 µM (inactive)
- GI50 (SK-OV-3): 19.8 µM (inactive)
- GI50 (UACC-257): 29.2 µM (inactive)
- GI50 (HCT-116): 16.6 µM (inactive)
- GI50 (NCI-H226): 14.3 µM (inactive)
- GI50 (SW-620): > 100 µM (inactive)
- GI50 (Malme-3M): 26.1 µM (inactive)
- GI50 (K562): > 100 µM (inactive)

From ChEMBL document CHEMBL1201862, “PubChem BioAssay data set” (2004)
